Values belong to the compound of their own block, whether it stands above or below them. The source made the active and inactive calls.
Tests used:
Cytochrome P450 1A2 = target: T1, Cytochrome P450 1A2 (Homo sapiens, UniProt P05177);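 also: PubChem cytochrome P450 panel assay, CYP1A2 panel member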
T1 sequence (P05177 whole entry): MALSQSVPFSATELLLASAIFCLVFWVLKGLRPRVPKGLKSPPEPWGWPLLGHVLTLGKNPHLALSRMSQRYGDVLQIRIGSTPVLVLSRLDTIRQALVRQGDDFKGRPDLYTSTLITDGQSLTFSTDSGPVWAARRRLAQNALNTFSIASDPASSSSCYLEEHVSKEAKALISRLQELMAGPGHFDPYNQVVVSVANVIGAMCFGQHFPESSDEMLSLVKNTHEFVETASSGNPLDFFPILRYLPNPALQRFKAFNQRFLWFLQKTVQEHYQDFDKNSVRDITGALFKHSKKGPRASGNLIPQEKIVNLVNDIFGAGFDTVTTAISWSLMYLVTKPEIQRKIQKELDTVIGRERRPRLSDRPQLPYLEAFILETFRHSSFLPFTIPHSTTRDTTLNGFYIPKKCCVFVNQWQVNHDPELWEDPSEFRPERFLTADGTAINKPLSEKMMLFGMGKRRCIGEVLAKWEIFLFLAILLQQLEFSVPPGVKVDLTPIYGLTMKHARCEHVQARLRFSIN

[1] = target: T2, Heat shock factor protein 1 (Mus musculus, UniProt P38532); assay: decrease of HSF1-responsive luciferase luminescence – cell-based, NIH3T3, dose retest, confirmation (AID 2382); type: functional;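 also: NIH3T3 fibroblasts with HSF1-driven luciferase reporter stressed by proteasome inhibitor MG132; luminescence from HSF1-driven luciferase expression after 8 hours of MG132 stress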
T2 sequence (P38532 whole entry): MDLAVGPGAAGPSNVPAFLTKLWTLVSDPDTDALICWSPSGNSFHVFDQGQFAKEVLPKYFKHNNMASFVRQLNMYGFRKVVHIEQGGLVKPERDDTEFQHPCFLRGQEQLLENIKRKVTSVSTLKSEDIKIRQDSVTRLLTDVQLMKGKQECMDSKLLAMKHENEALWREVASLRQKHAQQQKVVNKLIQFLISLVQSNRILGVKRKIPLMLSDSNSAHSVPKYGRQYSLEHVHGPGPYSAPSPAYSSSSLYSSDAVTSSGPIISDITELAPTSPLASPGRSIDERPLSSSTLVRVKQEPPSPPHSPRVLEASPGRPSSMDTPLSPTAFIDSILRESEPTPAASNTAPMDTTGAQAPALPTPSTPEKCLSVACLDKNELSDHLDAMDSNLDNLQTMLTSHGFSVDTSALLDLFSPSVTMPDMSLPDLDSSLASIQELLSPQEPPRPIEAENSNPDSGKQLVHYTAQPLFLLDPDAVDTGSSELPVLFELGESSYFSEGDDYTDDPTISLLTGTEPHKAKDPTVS

[2] = target: T2, Heat shock factor protein 1; assay: enhancement of HSF1-driven luciferase signal – cell-based, NIH3T3, luminescence, dose retest, confirmation (AID 435004); type: functional;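 also: stress induced by proteasome inhibitor MG132 added 30 min after compound; luciferase reporter driven by HSF1 response element in NIH3T3 cells; actives raise luminescence as potentiators of the MG132 stress response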
Cytochrome P450 2D6 = Cytochrome P450 2D6 (Homo sapiens, UniProt P10635);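 also: CYP2D6 member of a cytochrome P450 panel assay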
Sequence of Cytochrome P450 2D6 (P10635 whole entry): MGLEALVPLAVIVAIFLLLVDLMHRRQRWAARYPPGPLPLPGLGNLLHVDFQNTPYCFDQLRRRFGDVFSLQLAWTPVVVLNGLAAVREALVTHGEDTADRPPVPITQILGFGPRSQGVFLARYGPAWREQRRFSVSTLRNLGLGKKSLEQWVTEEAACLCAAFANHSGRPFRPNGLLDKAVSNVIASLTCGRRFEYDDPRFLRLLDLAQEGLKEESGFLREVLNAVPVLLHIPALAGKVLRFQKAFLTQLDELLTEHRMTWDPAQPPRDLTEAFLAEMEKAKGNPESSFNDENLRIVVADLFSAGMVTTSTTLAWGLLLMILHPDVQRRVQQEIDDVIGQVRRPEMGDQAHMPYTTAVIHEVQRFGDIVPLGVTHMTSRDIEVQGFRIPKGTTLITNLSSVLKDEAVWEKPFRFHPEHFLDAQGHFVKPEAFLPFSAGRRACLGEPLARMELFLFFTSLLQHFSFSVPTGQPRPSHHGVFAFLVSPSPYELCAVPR

Cytochrome P450 2C9 = Cytochrome P450 2C9 (Homo sapiens, UniProt P11712)
Sequence of Cytochrome P450 2C9 (P11712 whole entry): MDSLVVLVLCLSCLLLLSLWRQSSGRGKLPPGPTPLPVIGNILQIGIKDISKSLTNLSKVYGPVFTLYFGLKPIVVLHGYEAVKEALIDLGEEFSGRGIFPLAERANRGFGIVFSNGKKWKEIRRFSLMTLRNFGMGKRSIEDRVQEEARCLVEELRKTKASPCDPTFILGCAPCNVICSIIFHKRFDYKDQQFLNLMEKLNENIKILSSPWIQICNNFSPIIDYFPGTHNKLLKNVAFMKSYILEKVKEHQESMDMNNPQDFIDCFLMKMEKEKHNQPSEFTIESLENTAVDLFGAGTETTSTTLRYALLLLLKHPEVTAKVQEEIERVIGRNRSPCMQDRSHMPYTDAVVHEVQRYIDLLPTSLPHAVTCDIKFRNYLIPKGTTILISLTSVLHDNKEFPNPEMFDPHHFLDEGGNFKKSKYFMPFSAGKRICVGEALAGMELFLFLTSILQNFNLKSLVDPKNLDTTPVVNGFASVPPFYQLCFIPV

Paired box protein Pax-8 = Paired box protein Pax-8 (Homo sapiens, UniProt Q06710); assay: PAX8 transcriptional activity inhibition in RMG-I – RMG-I cells, luciferase, cherry-pick, dose response (AID 687027); type: functional, cell-based;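 also: luciferase reporter driven by Pax8 target thyroperoxidase promoter measured by SteadyGlo luminescence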
Sequence of Paired box protein Pax-8 (Q06710 whole entry): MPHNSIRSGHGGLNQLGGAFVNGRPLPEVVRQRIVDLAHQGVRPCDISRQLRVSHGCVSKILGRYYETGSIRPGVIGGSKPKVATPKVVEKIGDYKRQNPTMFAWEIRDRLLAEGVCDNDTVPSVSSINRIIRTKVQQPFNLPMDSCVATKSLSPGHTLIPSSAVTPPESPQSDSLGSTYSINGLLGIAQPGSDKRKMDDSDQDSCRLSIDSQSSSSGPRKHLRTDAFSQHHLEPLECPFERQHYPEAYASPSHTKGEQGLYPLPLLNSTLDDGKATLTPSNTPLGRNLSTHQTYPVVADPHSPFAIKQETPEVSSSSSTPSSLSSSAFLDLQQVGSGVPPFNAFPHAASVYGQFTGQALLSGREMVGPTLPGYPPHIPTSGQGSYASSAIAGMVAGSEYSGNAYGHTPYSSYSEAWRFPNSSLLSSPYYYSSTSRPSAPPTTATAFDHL

[3] = target: T3, Corticotropin-releasing factor receptor 2/Corticotropin-releasing factor-binding protein (Homo sapiens, UniProt P24387+Q13324); assay: activators of CRF receptor 2 with binding protein – uHTS hits, confirmation (AID 602473); type: functional; settings: read-out: EC50_Mean
T3 sequence (Q13324 whole entry): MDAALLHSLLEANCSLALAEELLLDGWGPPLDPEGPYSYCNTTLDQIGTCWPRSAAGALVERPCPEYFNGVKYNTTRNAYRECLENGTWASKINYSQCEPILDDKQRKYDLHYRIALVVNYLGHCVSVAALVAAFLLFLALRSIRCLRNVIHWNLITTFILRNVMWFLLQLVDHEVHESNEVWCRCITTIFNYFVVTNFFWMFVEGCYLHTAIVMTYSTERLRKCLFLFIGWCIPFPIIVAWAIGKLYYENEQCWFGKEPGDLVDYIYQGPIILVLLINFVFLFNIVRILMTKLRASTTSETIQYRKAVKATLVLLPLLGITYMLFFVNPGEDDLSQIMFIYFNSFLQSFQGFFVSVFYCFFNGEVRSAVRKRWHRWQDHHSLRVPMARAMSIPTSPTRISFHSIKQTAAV
T3 sequence (P24387 whole entry): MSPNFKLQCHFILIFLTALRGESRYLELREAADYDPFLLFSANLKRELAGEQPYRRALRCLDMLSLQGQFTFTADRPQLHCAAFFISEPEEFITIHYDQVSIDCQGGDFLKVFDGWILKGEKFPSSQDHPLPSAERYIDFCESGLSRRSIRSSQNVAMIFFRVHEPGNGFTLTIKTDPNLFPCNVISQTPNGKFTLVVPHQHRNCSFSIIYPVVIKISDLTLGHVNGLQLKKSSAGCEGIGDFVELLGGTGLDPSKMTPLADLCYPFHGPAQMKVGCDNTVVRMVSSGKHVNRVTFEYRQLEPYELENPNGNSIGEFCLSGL

Cytochrome P450 2C19 = Cytochrome P450 2C19 (Homo sapiens, UniProt P33261); assay: Cytochrome panel assay with activity outcomes. Panel member name: p450-cyp2c19 Compounds with AC50 equal or less than 10 uM are considered active; type: functional; settings: read-out: AC50
Sequence of Cytochrome P450 2C19 (P33261 whole entry): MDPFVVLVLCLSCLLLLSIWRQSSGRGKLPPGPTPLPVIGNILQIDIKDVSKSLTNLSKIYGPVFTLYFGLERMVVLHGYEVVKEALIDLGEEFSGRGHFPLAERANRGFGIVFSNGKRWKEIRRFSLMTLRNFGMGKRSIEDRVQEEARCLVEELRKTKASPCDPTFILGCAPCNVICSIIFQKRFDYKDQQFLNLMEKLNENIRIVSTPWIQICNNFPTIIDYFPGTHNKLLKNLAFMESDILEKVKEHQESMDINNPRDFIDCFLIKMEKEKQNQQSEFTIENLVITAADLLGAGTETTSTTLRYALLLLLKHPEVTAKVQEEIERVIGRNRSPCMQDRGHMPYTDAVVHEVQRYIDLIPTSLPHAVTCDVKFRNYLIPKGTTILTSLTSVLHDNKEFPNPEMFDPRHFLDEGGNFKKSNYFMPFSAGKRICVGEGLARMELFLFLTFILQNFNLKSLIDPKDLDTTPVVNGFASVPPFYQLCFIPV

Cytochrome P450 3A4 = Cytochrome P450 3A4 (Homo sapiens, UniProt P08684);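 also: CYP3A4 tested as one member of a cytochrome P450 panel screen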
Sequence of Cytochrome P450 3A4 (P08684 whole entry): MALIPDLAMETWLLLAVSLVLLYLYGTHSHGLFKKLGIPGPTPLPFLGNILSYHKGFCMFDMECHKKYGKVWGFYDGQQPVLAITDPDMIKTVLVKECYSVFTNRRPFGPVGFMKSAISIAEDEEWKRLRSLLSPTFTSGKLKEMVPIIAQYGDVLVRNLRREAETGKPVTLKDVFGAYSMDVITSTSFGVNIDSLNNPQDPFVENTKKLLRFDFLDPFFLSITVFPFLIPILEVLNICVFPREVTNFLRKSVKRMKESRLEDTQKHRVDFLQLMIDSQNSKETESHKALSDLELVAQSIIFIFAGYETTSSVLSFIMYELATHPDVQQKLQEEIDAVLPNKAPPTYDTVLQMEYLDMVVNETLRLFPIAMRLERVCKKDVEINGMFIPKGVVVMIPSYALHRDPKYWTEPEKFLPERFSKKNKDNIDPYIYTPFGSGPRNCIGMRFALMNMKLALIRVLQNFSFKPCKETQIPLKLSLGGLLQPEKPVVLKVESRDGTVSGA

Compound: CCOC(=O)C1(CC2CCCCO2)CCN(Cc2nc3ccccc3[nH]2)CC1 (configuration not stated)
EC50 [1]: > 195 µM (not active)

Compound: CC12CCC3C(CC=C4CC(O)CCC43C)C1C/C(=C\N1CCCC1)C2=O (configuration not stated)
EC50 [2]: > 260 µM (inactive)

Compound: CCCCC(=O)Nc1ccc(C)c(O)c1
AC50 (Cytochrome P450 2D6): 17.8 µM (inconclusive)
AC50 (Cytochrome P450 2C9): 14.1 µM (inconclusive)

Compound: CC1(C)C(=O)C(c2ccccc2)=C2CN3C(=O)N(CCc4ccccc4)C(=O)C3(Cc3ccc(F)cc3)C=C21 (configuration not stated)
AC50 (Cytochrome P450 1A2): 15.8 µM (inconclusive)
AC50 (Cytochrome P450 2C9): 10 µM (inconclusive)

Compound: CC(C)N1CCC(N2CCN(C3CCCC3)CC2CCO)CC1 (configuration not stated)
EC50 [1]: > 195 µM (not active)

Compound: COc1cc(CNc2ncnc3c2ncn3[C@H]2CN(Cc3ccc(-c4ccccc4)cc3)C[C@@H](CO)O2)cc(OC)c1OC
AC50 (Paired box protein Pax-8): 7.36 µM (active)

Compound: Cc1nc([N+](=O)[O-])cn1-c1ccc(N)cc1
EC50 [1]: > 195 µM (not active)

Compound: Cc1ccccc1NC(=O)COC(=O)c1ccc(S(C)(=O)=O)c([N+](=O)[O-])c1
EC50 [1]: 6.14 µM (active)

Compound: Cn1c(N)c(-c2ccccc2)c2ccc([N+](=O)[O-])cc2c1=O
EC50 [3]: 4.5 µM (active)

Compound: CCN(C(=O)c1ccc2c(SCC(=O)O)c3c(nc2c1)CCC3)c1cc(Cl)ccc1OC
EC50 [1]: > 195 µM (not active)

Compound: O=C(NCc1cc(C(F)(F)F)cc(C(F)(F)F)c1)C1CC(c2cccc([N+](=O)[O-])c2)=NO1 (configuration not stated)
EC50 [2]: 38.4 µM (active)

Compound: O[C@]1(c2ccccc2)c2ccccc2N=C2NCCN21
AC50 (Cytochrome P450 2D6): 2.51 µM (inconclusive)

Compound: N#CCCn1c(=O)c(-c2cccc(C#N)c2)nc2cnc(N3CCOCC3)nc21
AC50 (Cytochrome P450 1A2): 15.8 µM (inconclusive)
AC50 (Cytochrome P450 3A4): 15.8 µM (inconclusive)

Compound: CS(=O)(=O)Nc1cccc(-c2cncnc2NCc2cccnc2)c1
AC50 (Cytochrome P450 2D6): 39.8 µM (inconclusive)

Compound: COCCNc1ccnc(-c2ccccc2CN(C)C)n1
AC50 (Cytochrome P450 2D6): 39.8 µM (inconclusive)

Compound: N#C/C(=C/c1cc(Br)cs1)C(=O)NCC1CCCO1 (configuration not stated)
EC50 [1]: > 195 µM (not active)

Compound: Cc1c(N=C2N=C(NC(=O)c3ccc(F)cc3)c3ccccc32)c(=O)n(-c2ccccc2)n1C
EC50 [3]: 15.6 µM (active)

Compound: O=C(CSCc1ccc(Br)cc1)N1CCCC1
EC50 [2]: 108 µM (active)

Compound: O=C(Cc1ccccn1)N1CCCCN2[C@@H](CO)[C@@H](c3ccc(-c4ccc(F)cc4)cc3)[C@@H]2C1
AC50 (Paired box protein Pax-8): 22.6 µM (active)

Now from value to compound:

AC50 (Cytochrome P450 1A2): 20 µM (inconclusive)
Compound: O=C(Nc1ccccc1)N1CC2(CCN(C(=O)c3cnccn3)CC2)C1

AC50 (Cytochrome P450 1A2): 1.26 µM (inconclusive)
Compound: COc1ccc(NC(=S)Nc2ccccc2)cc1

AC50 (Cytochrome P450 2D6): 25.1 µM (inconclusive)
Compound: Cc1nc2c(C(=O)N3CCOCC3)cnn2c(C)c1Cc1ccc(Cl)cc1

AC50 (Cytochrome P450 2C19): 39.8 µM (inconclusive)
AC50 (Cytochrome P450 1A2): 28.2 µM (inconclusive)
Compound: CCn1c(COc2ccccc2)nnc1SCC(=O)c1cccc([N+](=O)[O-])c1

EC50 [1]: > 195 µM (not active)
Compound: Cc1cccc(C)c1NC(=O)CN1C(=O)NC(C)(CCc2ccccc2)C1=O (configuration not stated)

EC50 [1]: > 195 µM (not active)
Compound: CC(=O)Nc1ccc(NC(=O)CSc2cn(CC(=O)N3CCOCC3)c3ccccc23)cc1

EC50 [1]: > 195 µM (not active)
Compound: O=C(Cn1[nH]c(=O)c2ccccc2c1=O)OCC(=O)c1ccccc1Cl

AC50 (Paired box protein Pax-8): 0.728 µM (active)
Compound: COc1cc(/C=N\NC(=O)c2ccc(-c3ccccc3)cc2)cc(OC)c1OC(C)=O

EC50 [2]: > 260 µM (inactive)
Compound: O=C(CN1C(=O)NC2(CCCc3ccccc32)C1=O)Nc1cccc(S(=O)(=O)N2CCCCC2)c1 (configuration not stated)

From ChEMBL document CHEMBL1201862, “PubChem BioAssay data set” (2004)
